The results in this text go back to ChEMBL document CHEMBL4118146, “Design, synthesis and evaluation of substituted piperidine based KCNQ openers as novel antiepileptic agents” (Bioorg Med Chem Lett, 2018).

The target of data set [1] is T1, Potassium voltage-gated channel subfamily KQT member 2 (Homo sapiens, UniProt O43526). As to the kind of experiment: Activation of KCNQ2 (unknown origin) expressed in CHO cells at 10 uM incubated for 20 mins in dark measured every 2 secs for 10 secs by fluorescence-based thallium influx assay relative to control. Type of data set: cell-based.
T1 sequence (O43526 whole entry): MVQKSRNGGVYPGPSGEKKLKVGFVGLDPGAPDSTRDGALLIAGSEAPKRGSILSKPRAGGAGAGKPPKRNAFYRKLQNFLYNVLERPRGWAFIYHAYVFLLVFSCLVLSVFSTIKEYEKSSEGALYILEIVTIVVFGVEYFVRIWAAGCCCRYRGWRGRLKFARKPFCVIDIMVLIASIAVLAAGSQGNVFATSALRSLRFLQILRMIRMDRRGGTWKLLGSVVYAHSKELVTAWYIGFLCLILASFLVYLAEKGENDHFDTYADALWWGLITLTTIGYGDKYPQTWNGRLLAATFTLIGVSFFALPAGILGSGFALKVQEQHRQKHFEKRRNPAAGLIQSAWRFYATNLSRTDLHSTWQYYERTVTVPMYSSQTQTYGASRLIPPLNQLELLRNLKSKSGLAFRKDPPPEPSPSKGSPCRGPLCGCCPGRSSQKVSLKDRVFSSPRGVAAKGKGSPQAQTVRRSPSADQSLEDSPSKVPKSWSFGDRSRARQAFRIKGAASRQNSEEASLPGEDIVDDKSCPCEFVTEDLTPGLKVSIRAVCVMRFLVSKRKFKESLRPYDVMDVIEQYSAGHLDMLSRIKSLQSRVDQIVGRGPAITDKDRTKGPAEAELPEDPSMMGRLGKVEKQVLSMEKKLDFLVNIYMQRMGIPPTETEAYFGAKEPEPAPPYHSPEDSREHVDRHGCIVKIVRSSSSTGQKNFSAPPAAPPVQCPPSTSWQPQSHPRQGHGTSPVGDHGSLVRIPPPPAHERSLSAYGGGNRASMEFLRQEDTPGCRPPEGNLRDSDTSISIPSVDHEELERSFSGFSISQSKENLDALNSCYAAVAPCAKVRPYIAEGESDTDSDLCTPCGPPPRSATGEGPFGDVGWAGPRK
Data set [2] concerns the target T1, Potassium voltage-gated channel subfamily KQT member 2. As to the kind of experiment: Activation of KCNQ2 (unknown origin) expressed in CHO cells at 10 uM incubated for 20 mins in dark measured every 2 secs for 10 secs by fluorescence-based thallium influx assay relative to retigabine. Type of data set: cell-based.
Data set [3] shares this target. The data set is described as follows: Activation of KCNQ2 (unknown origin) expressed in CHO cells assessed as conductivity (I/I0) at 10 uM by electrophysiological patch-clamp test. Type of data set: cell-based. In general terms: Patch clamp records ionic current or voltage across a cell membrane.
Data set [4] has the same target. The data set is described as follows: Activation of KCNQ2 (unknown origin) expressed in CHO cells assessed as half-maximum activation voltage left shift at 10 uM by electrophysiological patch-clamp test. The format is cell-based.
For data set [5] the target is unchanged. As to the kind of experiment: Activation of KCNQ2 (unknown origin) expressed in CHO cells at 10 uM after 10 mins by atomic absorption spectrophotometry-based Rb+ flow assay. The format is cell-based.
Data set [6] can be described thus: Cmax in Sprague-Dawley rat at 1 mg/kg, iv measured over 24 hrs by LC/MS/MS method. Type of data set: ADME, organism-based. Set-up: dose 1 mg/kg, route intravenous. Particulars: in vivo.
Data set [7] can be described thus: AUClast in Sprague-Dawley rat at 1 mg/kg, iv measured over 24 hrs by LC/MS/MS method. Conditions: in vivo. Set-up: dose 1 mg/kg, time 0 - last, route intravenous. Type of data set: ADME, organism-based.
Data set [8] is described as follows: Tmax in Sprague-Dawley rat at 1 mg/kg, iv measured over 24 hrs by LC/MS/MS method. Type of data set: ADME, organism-based. Conditions: in vivo.
Data set [9] in a line: MRTlast in Sprague-Dawley rat at 1 mg/kg, iv measured over 24 hrs by LC/MS/MS method. Type of data set: ADME, organism-based. Particulars: in vivo.
Data set [10] is described as follows: Half life in Sprague-Dawley rat at 1 mg/kg, iv measured over 24 hrs by LC/MS/MS method. The format is ADME, organism-based. Particulars: in vivo.
The nature of data set [11]: Apparent volume of distribution in Sprague-Dawley rat at 1 mg/kg, iv measured over 24 hrs by LC/MS/MS method. The format is ADME, organism-based. Conditions: in vivo, read-out: Vd(app).
Data set [12] in a line: Clearance in Sprague-Dawley rat at 1 mg/kg, iv measured over 24 hrs by LC/MS/MS method. The format is ADME, organism-based. Particulars: in vivo.

On to `Cc1cc(N2CCC(c3ccncc3)CC2)cc(C)c1NC(=O)CC(C)(C)C`, for which the Activity in data set [1] stood at 29.7%.
On to `Cc1cc(N2CCC(c3cccc(Cl)c3)CC2)cc(C)c1NC(=O)CC(C)(C)C`, for which the Activity in [1] came to 168%. In [2], this compound registered a fold change (FC) of 3.7 to 42.
With `Cc1cc(N2CCC(c3ccc(C(F)(F)F)cc3)CC2)cc(C)c1NC(=O)CC(C)(C)C`, the Activity in data set [1] stood at 41.2%.
Still for that read-out and setting: under `Cc1cc(N2CCN(c3ccccn3)CC2)cc(C)c1NC(=O)CC(C)(C)C` stands 0.28%; under `Cc1cc(N2CCC(c3ccccc3)CC2)cc(C)c1NC(=O)CC(C)(C)C`, 0.63%; under `Cc1cc(N2CCC(c3ccccc3F)CC2)cc(C)c1NC(=O)CC(C)(C)C`, 44%.
Consider `Cc1cc(CN2CCCCC2)cc(C)c1NC(=O)CC(C)(C)C`, for which the Activity in data set [1] is 10.3%.
Same read-out and setting: under `Cc1cc(N2CCC(c3ccccc3C(F)(F)F)CC2)cc(C)c1NC(=O)CC(C)(C)C` stands -47.2%.
As to `CCOC(=O)Nc1ccc(NCc2ccc(F)cc2)cc1N` [EZOGABINE], the Ratio in [3] was 2.12. Further, the Activity came out at 40.2% in [1] and 40 mV in data set [4]. Besides, the EC50 – broadly, the concentration at which the effect is half-maximal – in data set [5] was determined as 350 nM. In addition, in data set [5], the Efficacy came to 210%.
As to `Cc1cc(N2CCC(c3cccc(F)c3)CC2)cc(C)c1NC(=O)CC(C)(C)C`, the concentration in data set [6] peaked (Cmax) at 9110 ng/mL. Also, the Activity in data set [1] amounted to 152%. For the same compound, the fold change (FC) in data set [2] fell in the range of 3.7 to 42. Also, the AUC(0-t) – broadly, the area under the concentration-time curve up to a stated or last time point – at 24 h in data set [7] amounted to 8360 ng·h/mL. Also, the Tmax – broadly, the time from dosing to the highest level – in data set [8] turned out to be 1.8 min. Further, the MRT last (usually the average time that molecules of a dose stay in the body) at 24 h in [9] turned out to be 2.61 h. Besides, in data set [10], the half-life – broadly, the time in which the quantity being followed falls by half – is 1.38 h. In addition, the Vd in [11] was 0.24 L/kg. The clearance (commonly a measure of how efficiently the substance is removed, as volume per time) in [12] is 2 mL/min/kg. In data set [5], this compound yielded an EC50 of 220 nM and an Efficacy of 180%.
`Cc1cc(N2CCC(N3CCCCC3)CC2)cc(C)c1NC(=O)CC(C)(C)C`: the Activity in [1] was 0.02%.
`Cc1cc(N2CCC(c3ccc(Cl)cc3)CC2)cc(C)c1NC(=O)CC(C)(C)C`: the Activity in data set [1] was 88.3%.
For the compound `Cc1cc(N2CCCCC2)cc(C)c1NC(=O)CC(C)(C)C`, the Activity in data set [1] is 69.8%.
Take `Cc1cc(N2CCC(c3cccnc3)CC2)cc(C)c1NC(=O)CC(C)(C)C`: the Activity in data set [1] was determined as 42.6%.
The same measure, in the same setting: under `Cc1cc(N2CCN(c3ccc(C(F)(F)F)cc3)CC2)cc(C)c1NC(=O)CC(C)(C)C` stands 88.3%; under `Cc1cc(N2CCN(c3cccc(C(F)(F)F)c3)CC2)cc(C)c1NC(=O)CC(C)(C)C`, 52.1%.
Take `Cc1cc(N2CCC(c3cccc(C(F)(F)F)c3)CC2)cc(C)c1NC(=O)CC(C)(C)C`: the Activity in data set [1] turned out to be 149%. In [2], this compound yielded a fold change (FC) of 3.7 to 42.
Regarding `Cc1cc(C2CCCCN2)cc(C)c1NC(=O)CC(C)(C)C` (stereo not given), the Activity in data set [1] is 0.83%.
In the case of `Cc1cc(N2CCC(=O)CC2)cc(C)c1NC(=O)CC(C)(C)C`, the Activity in [1] came out at 110%. In addition, in data set [5], a half-maximal response (EC50) required 130 nM and the Efficacy turned out to be 148%.
For `Cc1cc(N2CCC(N3CCOCC3)CC2)cc(C)c1NC(=O)CC(C)(C)C`, the Activity in data set [1] amounted to 1.13%.
In the case of `Cc1cc(N2CCC(C)(C)CC2)cc(C)c1NC(=O)CC(C)(C)C`, in data set [3], the Ratio amounted to 1.53. Moreover, the figures for the Activity in data set [1] and in [4] were 100% and 25 mV, respectively. The compound also displayed an EC50 in data set [5] of 1580 nM. The Efficacy in [5] amounted to 210%.
On to `Cc1cc(CN2CCCc3ccccc32)cc(C)c1NC(=O)CC(C)(C)C`, for which the Ratio in data set [3] turned out to be 2.76. In addition, the Activity in data set [1] worked out at 139%. In data set [2], this compound yielded a fold change (FC) of 3.5. For the same compound, the Activity in data set [4] was determined as 13.3 mV. For the same compound, in [5], the EC50 stood at 330 nM and the Efficacy came to 160%.
`Cc1cc(CN2CCc3ccccc3C2)cc(C)c1NC(=O)CC(C)(C)C`: the Activity in [1] came out at 5.11%.
